Laboratory results reported in US20240076285A1, “COMPOUNDS AND COMPOSITIONS FOR TREATING CONDITIONS ASSOCIATED WITH STING ACTIVITY” (IFM Due, Inc., priority 2020, published 2024).

target: T1, hSTING (Homo sapiens, UniProt Q86WV6, G230A/H232R/R293Q/R71H); test: STING reporter assay in THP1-Dual KO-IFNAR2 cells (2'3'cGAMP stimulation, luciferase reporter); type: cell-based; settings: 15 μM 2'3'cGAMP, 24 h, class symbols
T1 construct: host or cells: THP1-Dual KO-IFNAR2 cells
Experimental: STING pathway activation by the compounds described herein was measured using THP1-Dual™ cells (KO-IFNAR2).
THP1-Dual™ KO-IFNAR2 Cells (obtained from invivogen) were maintained in RPMI, 10% FCS, 5 ml P/S, 2 mM L-glut, 10 mM Hepes, and 1 mM sodium pyruvate. Compounds were spotted in empty 384 well tissue culture plates (Greiner 781182) by Echo for a final concentration of 0.0017-100 μM. Cells were plated into the TC plates at 40 μL per well, 2×10E6 cells/mL. For activation with STING ligand, 2′3′cGAMP (MW 718.38, obtained from Invivogen), was prepared in Optimem media.
The following solutions were prepared for each 1×384 plate: • Solution A: 2 mL Optimem with one of the following stimuli: • 60 μL of 10 mM 2′3′cGAMP→150 μM stock • Solution B: 2 mL Optimem with 60 μL Lipofectamine 2000→Incubate 5 min at RT
2 mL of solution A and 2 ml Solution B was mixed and incubated for 20 min at room temperature (RT). 20 μL of transfection solution (A+B) was added on top of the plated cells, with a final 2′3′cGAMP concentration of 15 μM. The plates were then centrifuged immediately at 340 g for 1 minute, after which they were incubated at 37° C., 5% CO2, >98% humidity for 24 h. Luciferase reporter activity was then measured. EC50 values were calculated by using standard methods known in the art.
Luciferase reporter assay: 10 μL of supernatant from the assay was transferred to white 384-plate with flat bottom and squared wells. One pouch of QUANTI-Luc™ Plus was dissolved in 25 mL of water. 100 μL of QLC Stabilizer per 25 mL of QUANTI-Luc™ Plus solution was added. 50 μL of QUANTI-Luc™ Plus/QLC solution per well was then added. Luminescence was measured on a Platereader (e.g., Spectramax I3X (Molecular Devices GF3637001)).
Luciferase reporter activity was then measured. EC50 values were calculated by using standard methods known in the art.

T1 sequence (Q86WV6 whole entry R71H/G230A/H232R/R293Q): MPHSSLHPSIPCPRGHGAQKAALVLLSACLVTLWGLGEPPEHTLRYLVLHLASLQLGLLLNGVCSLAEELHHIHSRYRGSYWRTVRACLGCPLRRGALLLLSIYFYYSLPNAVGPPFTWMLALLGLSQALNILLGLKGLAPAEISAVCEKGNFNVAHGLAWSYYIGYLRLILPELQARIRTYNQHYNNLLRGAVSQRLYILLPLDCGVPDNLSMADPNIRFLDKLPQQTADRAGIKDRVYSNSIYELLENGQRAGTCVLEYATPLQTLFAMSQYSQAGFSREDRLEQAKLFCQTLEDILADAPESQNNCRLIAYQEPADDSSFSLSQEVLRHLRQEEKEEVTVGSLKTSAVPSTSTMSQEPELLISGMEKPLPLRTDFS

Compound | EC50
N#Cc1cc(Nc2cc(Cl)cc(OC(F)(F)F)c2)cc(Nc2ccc3cc[nH]c3c2)n1 [Compound 134, 4-{[3-chloro-5-(trifluoromethoxy)phenyl]amino}-6-[(1H-indol-6-yl)amino]pyridine-2-carbonitrile] | 200 to 1000 nM
N#Cc1cc(Nc2ccc(C(F)(F)F)c(F)c2)cc(Nc2cc(Cl)c3cc[nH]c3c2)n1 [Compound 159, 6-[(4-chloro-1H-indol-6-yl)amino]-4-{[3-fluoro-4-(trifluoromethyl)phenyl]amino}pyridine-2-carbonitrile] | 40 to 200 nM
N#Cc1cc(Nc2cncc(C(F)(F)F)c2)cc(Nc2ccc3cc[nH]c3c2)n1 [Compound 141, 6-[(1H-indol-6-yl)amino]-4-{[5-(trifluoromethyl)pyridin-3-yl]amino}pyridine-2-carbonitrile] | 200 to 1000 nM
CN1CCN(c2cc(C#N)nc(Nc3cc(Cl)c4cc[nH]c4c3)c2)CC1 [Compound 152, 6-[(4-chloro-1H-indol-6-yl)amino]-4-(4-methylpiperazin-1-yl)pyridine-2-carbonitrile] | 5000 to 100000 nM
N#Cc1cc(Nc2cncc(Cl)c2)cc(Nc2cc(Cl)c3cc[nH]c3c2)n1 [Compound 175, 6-[(4-chloro-1H-indol-6-yl)amino]-4-[(5-chloropyridin-3-yl)amino]pyridine-2-carbonitrile] | 200 to 1000 nM
CC(C)c1cncc(Nc2cc(C#N)nc(Nc3ccc4cc[nH]c4c3)c2)c1 [Compound 124, 6-[(1H-indol-6-yl)amino]-4-{[5-(propan-2-yl)pyridin-3-yl]amino}pyridine-2-carbonitrile] | 200 to 1000 nM
Fc1cnc(Nc2ccc3cc[nH]c3c2)cc1Nc1ccc2cc[nH]c2c1 [Compound 146] | 1000 to 5000 nM
N#Cc1cc(Nc2cc(F)cc(C(F)(F)F)c2)cc(Nc2cc(Cl)c3cc[nH]c3c2)n1 [Compound 186, 6-[(4-chloro-1H-indol-6-yl)amino]-4-{[3-fluoro-5-(trifluoromethyl)phenyl]amino}pyridine-2-carbonitrile] | 200 to 1000 nM
Cc1nc2cc(Nc3cc(C#N)nc(Nc4ccc5cc[nH]c5c4)c3)ccc2s1 [Compound 107, 6-[(1H-indol-6-yl)amino]-4-[(2-methyl-1,3-benzothiazol-5-yl)amino]pyridine-2-carbonitrile] | 1000 to 5000 nM
N#Cc1cc(Nc2ccc(OCC(F)(F)F)nc2)cc(Nc2cc(Cl)c3cc[nH]c3c2)n1 [Compound 153, 6-[(4-chloro-1H-indol-6-yl)amino]-4-{[6-(2,2,2-trifluoroethoxy)pyridin-3-yl]amino}pyridine 2-carbonitrile] | 40 to 200 nM
N#Cc1cc(N2CCN(CC(F)(F)F)CC2)cc(Nc2ccc3cc[nH]c3c2)n1 [Compound 120, 6-[(1H-indol-6-yl)amino]-4-[4-(2,2,2-trifluoroethyl)piperazin-1-yl]pyridine-2-carbonitrile] | 5000 to 100000 nM
N#Cc1cc(Nc2cc(F)cc(F)c2)cc(Nc2cc(Cl)c3cc[nH]c3c2)n1 [Compound 170, 6-[(4-chloro-1H-indol-6-yl)amino]-4-[(3,5-difluorophenyl)amino]pyridine-2-carbonitrile] | 40 to 200 nM
COc1ccc(Nc2cc(C#N)nc(Nc3cc(Cl)c4cc[nH]c4c3)c2)cn1 [Compound 166, 6-[(4-chloro-1H-indol-6-yl)amino]-4-[(6-methoxypyridin-3-yl)amino]pyridine-2-carbonitrile] | 200 to 1000 nM
N#Cc1cc(Nc2ccc3c(c2)OC(F)(F)O3)cc(Nc2ccc3cc[nH]c3c2)n1 [Compound 117, 4-[(2,2-difluoro-2H-1,3-benzodioxol-5-yl)amino]-6-[(1H-indol-6-yl)amino]pyridine-2-carbonitrile] | 200 to 1000 nM
N#Cc1cc(Nc2ccc(C(F)(F)F)nc2)cc(Nc2cc(Cl)c3cc[nH]c3c2)n1 [Compound 183, 6-[(4-chloro-1H-indol-6-yl)amino]-4-{[6-(trifluoromethyl)pyridin-3-yl]amino}pyridine-2-carbonitrile] | 200 to 1000 nM
N#Cc1cc(Nc2ccc(F)c(F)c2)cc(Nc2cc(Cl)c3cc[nH]c3c2)n1 [Compound 168, 6-[(4-chloro-1H-indol-6-yl)amino]-4-[(3,4-difluorophenyl)amino]pyridine-2-carbonitrile] | 40 to 200 nM

Compound | EC50
CNC(=O)c1ccc(Nc2cc(C#N)nc(Nc3cc(Cl)c4cc[nH]c4c3)c2)cc1F [Compound 190, 4-({2-[(4-chloro-1H-indol-6-yl)amino]-6-cyanopyridin-4-yl}amino)-2-fluoro-N-methylbenzamide] | 1000 to 5000 nM
CNC(=O)c1ccc(Nc2cc(C#N)nc(Nc3ccc4cc[nH]c4c3)c2)cc1F [Compound 132, 4-({2-cyano-6-[(1H-indol-6-yl)amino]pyridin-4-yl}amino)-2-fluoro-N-methylbenzamide] | 5000 to 100000 nM
CCc1ccc(Nc2cc(C#N)nc(Nc3ccc4cc[nH]c4c3)c2)cn1 [Compound 111, 4-[(6-ethylpyridin-3-yl)amino]-6-[(1H-indol-6-yl)amino]pyridine-2-carbonitrile] | 1000 to 5000 nM
Cc1nn(C)c2ccc(Nc3cc(C#N)nc(Nc4ccc5cc[nH]c5c4)c3)cc12 [Compound 108, 4-[(1,3-dimethyl-1H-indazol-5-yl)amino]-6-[(1H-indol-6-yl)amino]pyridine-2-carbonitrile] | 1000 to 5000 nM
N#Cc1cc(Nc2ccc3c(c2)OC(F)(F)O3)cc(Nc2cc(Cl)c3cc[nH]c3c2)n1 [Compound 177, 6-[(4-chloro-1H-indol-6-yl)amino]-4-[(2,2-difluoro-2H-1,3-benzodioxol-5-yl)amino]pyridine-2-carbonitrile] | 40 to 200 nM
COc1cc(Nc2cc(C#N)nc(Nc3ccc4cc[nH]c4c3)c2)cnc1Cl [Compound 128, 4-[(6-chloro-5-methoxypyridin-3-yl)amino]-6-[(1H-indol-6-yl)amino]pyridine-2-carbonitrile] | 1000 to 5000 nM
COc1cc(Nc2cc(C#N)nc(Nc3cc(Cl)c4cc[nH]c4c3)c2)cnc1Cl [Compound 150, 6-[(4-chloro-1H-indol-6-yl)amino]-4-[(6-chloro-5-methoxypyridin-3-yl)amino]pyridine-2-carbonitrile] | 200 to 1000 nM
N#Cc1cc(Cl)cc(Nc2cc(C#N)nc(Nc3ccc4cc[nH]c4c3)c2)c1 [Compound 135, 4-[(3-chloro-5-cyanophenyl)amino]-6-[(1H-indol-6-yl)amino]pyridine-2-carbonitrile] | 200 to 1000 nM
N#Cc1cc(Nc2ccc3c(c2)CC(=O)N3)cc(Nc2ccc3cc[nH]c3c2)n1 [Compound 101, 6-[(1H-indol-6-yl)amino]-4-[(2-oxo-2,3-dihydro-1H-indol-5-yl)amino]pyridine-2-carbonitrile] | 5000 to 100000 nM
N#Cc1cc(Nc2cc(F)cc(Cl)c2)cc(Nc2cc(Cl)c3cc[nH]c3c2)n1 [Compound 171, 6-[(4-chloro-1H-indol-6-yl)amino]-4-[(3-chloro-5-fluorophenyl)amino]pyridine-2-carbonitrile] | 200 to 1000 nM
N#Cc1cc(Nc2ccc(F)c(Cl)c2)cc(Nc2cc(Cl)c3cc[nH]c3c2)n1 [Compound 169, 6-[(4-chloro-1H-indol-6-yl)amino]-4-[(3-chloro-4-fluorophenyl)amino]pyridine-2-carbonitrile] | 40 to 200 nM
N#Cc1cc(Nc2ccc3c(c2)OC(F)(F)C(F)(F)O3)cc(Nc2cc(Cl)c3cc[nH]c3c2)n1 [Compound 189, 6-[(4-chloro-1H-indol-6-yl)amino]-4-[(2,2,3,3-tetrafluoro-2,3-dihydro-1,4-benzodioxin-6-yl)amino]pyridine-2-carbonitrile] | 40 to 200 nM
COc1cc(Cl)cc(Nc2cc(C#N)nc(Nc3cc(Cl)c4cc[nH]c4c3)c2)c1 [Compound 185, 6-[(4-chloro-1H-indol-6-yl)amino]-4-[(3-chloro-5-methoxyphenyl)amino]pyridine-2-carbonitrile] | 40 to 200 nM
CC(C)(C)c1cncc(Nc2cc(C#N)nc(Nc3cc(Cl)c4cc[nH]c4c3)c2)c1 [Compound 163, 4-[(5-tert-butylpyridin-3-yl)amino]-6-[(4-chloro-1H-indol-6-yl)amino]pyridine-2-carbonitrile] | 200 to 1000 nM
N#Cc1cc(N2CCC(Cc3ccccc3)CC2)cc(Nc2cc(Cl)c3cc[nH]c3c2)n1 [Compound 151, 4-(4-benzylpiperidin-1-yl)-6-[(4-chloro-1H-indol-6-yl)amino]pyridine-2-carbonitrile] | 200 to 1000 nM

same assay, conditions: 15 μM 2'3'cGAMP, 24 h, numeric bound

Compound | EC50
Cc1ccc(Nc2cc(C#N)nc(Nc3ccc4cc[nH]c4c3)c2)cn1 [Compound 102, 6-[(1H-indol-6-yl)amino]-4-[(6-methylpyridin-3-yl)amino]pyridine-2-carbonitrile] | > 30000 nM
COC1CCN(c2cc(C#N)nc(Nc3ccc4cc[nH]c4c3)c2)CC1 [Compound 103, 6-[(1H-indol-6-yl)amino]-4-(4-methoxypiperidin-1-yl)pyridine-2-carbonitrile] | > 30000 nM
